Assay: Thymol retention on porous titanium in open air, remaining thymol by HPLC
Type: physicochemical
Details: 360 h

amount of thymol remaining in the samples: almost no thymol left
SMILES: Cc1ccc(C(C)C)c(O)c1 [free thymol, thymol]

From patent publication US20260232876A1, “POROUS METAL STRUCTURES INCORPORATING NANOPARTICLES” (Yissum Research Development Company of the Hebrew …, priority 2023, published 2026)
